The target in data set [1] is T1, GLS1 (Homo sapiens, UniProt O94925).
T1 sequence (O94925 55-669): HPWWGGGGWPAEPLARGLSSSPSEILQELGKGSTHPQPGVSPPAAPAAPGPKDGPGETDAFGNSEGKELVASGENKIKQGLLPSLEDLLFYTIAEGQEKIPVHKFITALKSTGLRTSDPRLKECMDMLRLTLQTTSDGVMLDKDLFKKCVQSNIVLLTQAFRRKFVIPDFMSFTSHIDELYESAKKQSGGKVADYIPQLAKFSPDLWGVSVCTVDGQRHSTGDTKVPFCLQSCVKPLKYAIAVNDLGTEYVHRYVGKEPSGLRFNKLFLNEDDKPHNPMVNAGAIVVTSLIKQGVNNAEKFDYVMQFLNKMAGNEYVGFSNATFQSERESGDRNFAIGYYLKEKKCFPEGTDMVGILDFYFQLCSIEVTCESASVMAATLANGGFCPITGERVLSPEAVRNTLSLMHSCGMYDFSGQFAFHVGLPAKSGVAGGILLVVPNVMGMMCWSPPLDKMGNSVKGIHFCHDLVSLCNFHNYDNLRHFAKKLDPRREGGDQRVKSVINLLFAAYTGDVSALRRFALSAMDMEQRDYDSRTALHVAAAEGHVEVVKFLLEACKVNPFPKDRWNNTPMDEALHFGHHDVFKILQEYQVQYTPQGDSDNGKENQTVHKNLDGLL
Description: Activity test of compounds in GLS1 coupling reaction system. It counts as biochemical. The following applies: 2 nM GLS1, 4.5 mM L-glutamine, 1 hour pre-incubation at 23° C. On the procedure: Experimental Example 1: Activity Test of Compounds in GLS1 Coupling Reaction System
Preparation of Reaction Reagents: Relevant reagents should be prepared on the day of the experiment: Preparation of 1× assay buffer The final concentration of each component in the final experimental buffer was: 50 mM Tris-HCl pH 8.0, 0.25 mM EDTA, 150 mM K2HPO4, 0.1 mg/mL BSA, 1 mM DTT, 0.01% Triton X-100 Preparation of 2× experimental component solutions: The reagents were taken out and placed on ice to melt naturally for later use; 1× assay buffer was used to prepare “solution A” (solution A contains: L-glutamine, NAD+(nicotinamide adenine dinucleotide) and GLDH (glutamic acid dehydrogenase)). The final concentrations of each component in the final experimental reaction systemwere 4.5 mM L-glutamine, 2 mM NAD+ 4 U/mL GLDH. 1× assay buffer was used to prepare “solution B” - - - 2× enzyme solution (solution B contains GLS1 enzyme). The final concentration of GLS1 in the final experimental reaction system was 2 nM. Experimental Steps: The experiment plates are prepared by Labcyte ECHO before the experiment, which contain the compounds gradient concentrations and the corresponding DMSO solution: The experimental plates were taken out, and 20 μL of solution B (enzyme GLS1 solution) was added to columns 2 to 23 of the experimental plate, then 20 μL assay buffer was added to columns 1 and 24 as Min control in the experimental system. Then the experimental plates were centrifuged at 1000 rpm for 30 seconds; and sealed the membrane, and the plates were incubated at 23° C. for 1 hour. After the incubation of 1 hour, 20 μL of solution A was added to columns 1 to 24 of the experimental plates (ie, Samples were added to the whole plate). The experimental plates were centrifuged at 1000 rpm for 30 seconds. The experimental plates were placed on the SpectraMax 340PC, and the plates were continuously read for 20 minutes in dynamic mode (the reading interval was set to 1 minute).

A short description of data set [2]: Evaluation of compounds pharmacokinetics in mice. The following applies: mouse, plasma, female C57BL/6 mice. Format: in vivo. On the procedure:
Experimental Example 2: Evaluation of Compounds Pharmacokinetics
Experimental purpose: To test the pharmacokinetics of compounds in mice
C57BL/6 mice (female, 7-9 weeks old, Shanghai SLAC)
Experimental procedure: C57BL/6 mice (C57BL/6) were administered a clear solution obtained by dissolving test compounds via tail vein injection and intragastric administration (overnight fast, 7-9 weeks old). After administration of the test compounds, the intravenous group was at 0.0833, 0.25, 0.5, 1, 2, 4, 6, 8 and 24 h, and the gavage group was at 0.0833, 0.25, 0.5, 1, 2, 4, 6, 8 and 24, blood was collected from the mandibular vein and centrifuged to obtain plasma. LC-MS/MS method was used to determine blood drug concentration, and WinNonlin™ Version 6.3 pharmacokinetic software was used to calculate the relevant pharmacokinetic parameters by non-compartment model linear logarithmic trapezoid method.

Regarding `O=C(Cc1cccnc1)Nc1nnc(NC2CCN(c3cccnn3)CC2)s1` [Example 5], the IC50 in data set [1] lay within 200 to 1000 nM.

Take `O=C(Cc1cc(Cl)ccc1Cl)Nc1nnc(NC2CCN(c3cccnn3)CC2)s1` [Example 7]: the IC50 in data set [1] lay in the range of 200 to 1000 nM.

Take `O=C(Cc1cc(Cl)ccc1F)Nc1nnc(NC2CCN(c3cccnn3)CC2)s1` [Example 8]: the half-maximal inhibitory concentration (IC50) in data set [1] is 200 to 1000 nM.

Compound `O=C(Cc1cc(OC(F)(F)F)ccc1F)Nc1nnc(NC2CCN(c3cccnn3)CC2)s1` [Example 9] displayed an IC50 in data set [1] of 200 to 1000 nM.

In turn, `CO[C@H](C(=O)Nc1nnc(NC2CCN(c3cccnn3)CC2)s1)c1cccnc1` [Example 16] yielded an IC50 in data set [1] of 200 to 1000 nM.

In turn, `CO[C@H](C(=O)Nc1nnc(NC2CCN(c3cccnn3)CC2)s1)c1cc(OC(F)(F)F)ccc1F` [Example 17] gave an IC50 in data set [1] of under 200 nM. The same compound displayed a bioavailability in data set [2] (po, intragastric vs tail vein) of 91.3%. Further, in data set [2] (po, tail vein injection and intragastric administration, route and dose not given, read-out: T1/2 (half-life) (converted)), the half-life was 2.52 h. In addition, the AUC(0-inf) in data set [2] (route and dose not given) came out at 26.1 µM·h. For the same compound, in data set [2] (route and dose not given, read-out: Cmax (maximum concentration)), the Cmax amounted to 11.6 µM.

In general, IC50 refers to the point on the concentration scale where inhibition reaches its midpoint. By bioavailability is commonly meant dose-corrected exposure relative to a reference, in per cent. High values mean much systemic uptake, low ones little systemic uptake. What is called AUC(0-inf) is the area under the concentration-time curve extrapolated to infinity. Low readings indicate less exposure, high ones more exposure.
